# Measurements from PubChem BioAssay AID248 (DTP/NCI, 2004).
# Values joined by “and” are separate entries in the source; they are usually repeats but may differ in a detail not shown here. Equal entries are not always repeated. Inconclusive results and toxic doses are left out.
# Tested on: L1210 leukemia ip in BDF1 mice, survival T/C
# Assay: NCI In Vivo Anticancer Drug Screen. Data for tumor model L1210 Leukemia (intraperitoneal) in B6D2F1 (BDF1) mice
# Conditions: endpoint: mean survival time, higher = longer survival
# Summary of the method: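 Survival endpoint. Drug-treated group vs vehicle group, expressed as T divided by C. Tumor passaged by transplantation.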
# [1] = dose: 100.0 mg/kg/injection, schedule: Q01DX009 (ip), vehicle: Klucel (hydroxypropylcellulose) (HPC)
# [2] = dose: 200.0 mg/kg/injection, schedule: Q01DX009 (ip), vehicle: Klucel (hydroxypropylcellulose) (HPC)
# [3] = dose: 400.0 mg/kg/injection, schedule: Q01DX009 (ip), vehicle: Klucel (hydroxypropylcellulose) (HPC)
# [4] = dose: 100.0 mg/kg/injection, schedule: Q01DX009 (ip), vehicle: saline
# [5] = dose: 100.0 mg/kg/injection, schedule: Q04DX003 (ip), vehicle: saline
# [6] = dose: 200.0 mg/kg/injection, schedule: Q01DX009 (ip), vehicle: saline
# [7] = dose: 200.0 mg/kg/injection, schedule: Q04DX003 (ip), vehicle: saline
# [8] = dose: 400.0 mg/kg/injection, schedule: Q01DX009 (ip), vehicle: saline
# [9] = dose: 100.0 mg/kg/injection, schedule: Q04DX003 (ip), vehicle: Klucel (hydroxypropylcellulose) (HPC)
# [10] = dose: 200.0 mg/kg/injection, schedule: Q04DX003 (ip), vehicle: Klucel (hydroxypropylcellulose) (HPC)
compound,measurement,setting,value
Cc1ccc(-c2nnc(-c3ccccc3)n2-c2cc(C(=O)O)ccc2C)cc1,T/C,"dose: 100.0 mg/kg/injection, schedule: Q01DX001 (ip), vehicle: Klucel (hydroxypropylcellulose) (HPC)",89 % of control
same,T/C,[1],91 % of control
same,T/C,"dose: 200.0 mg/kg/injection, schedule: Q01DX001 (ip), vehicle: Klucel (hydroxypropylcellulose) (HPC)",91 % of control
same,T/C,[2],98 % of control
same,T/C,"dose: 400.0 mg/kg/injection, schedule: Q01DX001 (ip), vehicle: Klucel (hydroxypropylcellulose) (HPC)",97 % of control
same,T/C,[3],98 % of control
CNC(=O)Oc1cc2c(cc1C)C(C)(C)CCC2(C)C,T/C,[1],96 % of control
same,T/C,[2],96 % of control
same,T/C,[3],91 % of control
CCCn1cnc2c(=S)nc[nH]c21,T/C,"dose: 12.5 mg/kg/injection, schedule: Q01DX Z (ip), vehicle: carboxymethylcellulose (CMC)",108 % of control
same,T/C,"dose: 25.0 mg/kg/injection, schedule: Q01DX Z (ip), vehicle: carboxymethylcellulose (CMC)",102 % of control
same,T/C,"dose: 37.5 mg/kg/injection, schedule: Q04DX003 (ip), vehicle: Klucel (hydroxypropylcellulose) (HPC)",97 % of control
same,T/C,"dose: 50.0 mg/kg/injection, schedule: Q01DX Z (ip), vehicle: carboxymethylcellulose (CMC)",104 % of control
same,T/C,"dose: 75.0 mg/kg/injection, schedule: Q04DX003 (ip), vehicle: Klucel (hydroxypropylcellulose) (HPC)",103 % of control
same,T/C,"dose: 150.0 mg/kg/injection, schedule: Q04DX003 (ip), vehicle: Klucel (hydroxypropylcellulose) (HPC)",123 % of control
same,T/C,"dose: 300.0 mg/kg/injection, schedule: Q04DX003 (ip), vehicle: Klucel (hydroxypropylcellulose) (HPC)",151 % of control
C=C(Br)CN1C(=O)c2ccccc2C1=O,T/C,[4],89 % of control
same,T/C,[5],101 % of control
same,T/C,[6],112 % of control
same,T/C,[7],104 % of control
same,T/C,[8],87 % of control
same,T/C,"dose: 400.0 mg/kg/injection, schedule: Q04DX003 (ip), vehicle: saline",93 % of control
CC(=O)OC1CC2CCC1C2Br (configuration not stated),T/C,"dose: 100.0 mg/kg/injection, schedule: Q01DX001 (ip), vehicle: carboxymethylcellulose (CMC)",95 % of control
same,T/C,"dose: 200.0 mg/kg/injection, schedule: Q01DX001 (ip), vehicle: carboxymethylcellulose (CMC)",93 % of control
same,T/C,"dose: 400.0 mg/kg/injection, schedule: Q01DX001 (ip), vehicle: carboxymethylcellulose (CMC)",90 % of control
CC(=O)OCC(=O)[C@@]1(O)CC[C@H]2[C@@H]3C[C@@H](C)C4=CC(=O)C=C[C@]4(C)[C@H]3[C@@H](O)C[C@@]21C,T/C,"dose: 75.0 mg/kg/injection, schedule: Q01DX009 (sc), vehicle: steriod suspending solution",92 % of control
same,T/C,"dose: 100.0 mg/kg/injection, schedule: Q04DX003 (ip), vehicle: steriod suspending solution",97 % of control
same,T/C,"dose: 100.0 mg/kg/injection, schedule: Q04DX003 (sc), vehicle: steriod suspending solution",100 % of control
same,T/C,"dose: 150.0 mg/kg/injection, schedule: Q01DX009 (sc), vehicle: steriod suspending solution",92 % of control
same,T/C,"dose: 200.0 mg/kg/injection, schedule: Q04DX003 (ip), vehicle: steriod suspending solution",91 % of control
same,T/C,"dose: 200.0 mg/kg/injection, schedule: Q04DX003 (sc), vehicle: steriod suspending solution",102 % of control
same,T/C,"dose: 300.0 mg/kg/injection, schedule: Q01DX009 (sc), vehicle: steriod suspending solution",92 % of control
same,T/C,"dose: 400.0 mg/kg/injection, schedule: Q04DX003 (ip), vehicle: steriod suspending solution",94 % of control
same,T/C,"dose: 400.0 mg/kg/injection, schedule: Q04DX003 (sc), vehicle: steriod suspending solution",103 % of control
COc1nncc(-c2cnnc(OC)n2)n1,T/C,"dose: 12.5 mg/kg/injection, schedule: Q04DX002 (ip), vehicle: Klucel (hydroxypropylcellulose) (HPC)",112 % of control
same,T/C,"dose: 25.0 mg/kg/injection, schedule: Q04DX002 (ip), vehicle: Klucel (hydroxypropylcellulose) (HPC)",105 % of control
same,T/C,"dose: 50.0 mg/kg/injection, schedule: Q04DX002 (ip), vehicle: Klucel (hydroxypropylcellulose) (HPC)",109 % of control
CC1CNC(c2ccc(NC(=O)c3ccc(C(=O)Nc4ccc(C5=NC(C)CN5)cc4)c(NC(=O)Nc4cccc(C5=NC(C)CN5)c4)c3)cc2)=N1 (configuration not stated),T/C,"dose: 1.88 mg/kg/injection, schedule: Q01DX Z (ip), vehicle: saline",116 % of control
same,T/C,"dose: 3.75 mg/kg/injection, schedule: Q01DX Z (oral), vehicle: saline",103 % of control
same,T/C,"dose: 7.5 mg/kg/injection, schedule: Q01DX Z (ip), vehicle: saline",153 % of control
same,T/C,"dose: 7.5 mg/kg/injection, schedule: Q01DX Z (oral), vehicle: saline",106 % of control
same,T/C,"dose: 15.0 mg/kg/injection, schedule: Q01DX Z (oral), vehicle: saline",101 % of control
same,T/C,"dose: 30.0 mg/kg/injection, schedule: Q01DX Z (oral), vehicle: saline",117 % of control
same,T/C,"dose: 62.5 mg/kg/injection, schedule: Q01DX010 (oral), vehicle: saline",99 % of control
same,T/C,"dose: 125.0 mg/kg/injection, schedule: Q01DX010 (oral), vehicle: saline",100 % of control
same,T/C,"dose: 250.0 mg/kg/injection, schedule: Q01DX010 (oral), vehicle: saline",92 % of control
COC(=O)C(Br)C(OC)c1ccccc1 (configuration not stated),T/C,[1],96 % of control
same,T/C,[2],96 % of control
same,T/C,[3],98 % of control
O=[N+]([O-])c1ccc(N(CCO)CCO)cc1,T/C,"dose: 50.0 mg/kg/injection, schedule: Q01DX001 (ip), vehicle: saline",96 % of control
same,T/C,"dose: 100.0 mg/kg/injection, schedule: Q01DX001 (ip), vehicle: saline",100 % of control
same,T/C,"dose: 200.0 mg/kg/injection, schedule: Q01DX001 (ip), vehicle: saline",100 % of control
same,T/C,"dose: 400.0 mg/kg/injection, schedule: Q01DX001 (ip), vehicle: saline",96 % of control
[Cl][Pt+2][Cl].[NH-]CC(=O)O.[NH-]CC(=O)O,T/C,"dose: 9.7 mg/kg/injection, schedule: Q01DX009 (ip), vehicle: saline",86 % of control
same,T/C,"dose: 19.4 mg/kg/injection, schedule: Q01DX001 (ip), vehicle: saline",100 % of control
same,T/C,"dose: 19.4 mg/kg/injection, schedule: Q01DX009 (ip), vehicle: saline",89 % of control
same,T/C,"dose: 38.8 mg/kg/injection, schedule: Q01DX001 (ip), vehicle: saline",105 % of control
same,T/C,"dose: 38.8 mg/kg/injection, schedule: Q01DX009 (ip), vehicle: saline",95 % of control
same,T/C,"dose: 77.5 mg/kg/injection, schedule: Q01DX001 (ip), vehicle: saline",109 % of control
same,T/C,"dose: 77.5 mg/kg/injection, schedule: Q01DX009 (ip), vehicle: saline",100 % of control
same,T/C,"dose: 155.0 mg/kg/injection, schedule: Q01DX001 (ip), vehicle: saline",98 % of control
CCCCNC(=O)Nc1ccccc1CC,T/C,[1],93 % of control
same,T/C,[9],95 % of control
same,T/C,[2],96 % of control
same,T/C,[10],106 % of control
same,T/C,[3],93 % of control
same,T/C,"dose: 400.0 mg/kg/injection, schedule: Q04DX003 (ip), vehicle: Klucel (hydroxypropylcellulose) (HPC)",97 % of control
CC(=O)Oc1c(OC(C)=O)c(-c2c(C)cc(C)c(Br)c2C)c(OC(C)=O)c(OC(C)=O)c1-c1c(C)cc(C)c(Br)c1C,T/C,[1],103 % of control
same,T/C,[2],97 % of control
same,T/C,[3],103 % of control
CCOC(=O)CNC(=O)C(CSCc1cccs1)NC(=O)OCc1ccccc1 (configuration not stated),T/C,"dose: 100.0 mg/kg/injection, schedule: Q01DX009 (ip), vehicle: saline with Tween-80",100 % of control
same,T/C,"dose: 200.0 mg/kg/injection, schedule: Q01DX009 (ip), vehicle: saline with Tween-80",94 % of control
same,T/C,"dose: 400.0 mg/kg/injection, schedule: Q01DX009 (ip), vehicle: saline with Tween-80",90 % of control
CN(C)C(C)(C)CNc1ccc(C(=O)O)cc1,T/C,"dose: 6.0 mg/kg/injection, schedule: Q01DX009 (ip), vehicle: saline",96 % of control
same,T/C,"dose: 12.0 mg/kg/injection, schedule: Q01DX009 (ip), vehicle: saline",97 % of control
same,T/C,"dose: 25.0 mg/kg/injection, schedule: Q01DX009 (ip), vehicle: saline",100 % of control and 98 % of control
same,T/C,"dose: 50.0 mg/kg/injection, schedule: Q01DX009 (ip), vehicle: saline",109 % of control
same,T/C,[5],98 % of control
same,T/C,[7],101 % of control
c1ccc(C2C(c3ccccc3)N2CCCN2CCOCC2)cc1 (configuration not stated),T/C,"dose: 50.0 mg/kg/injection, schedule: Q01DX009 (ip), vehicle: Klucel (hydroxypropylcellulose) (HPC)",106 % of control
same,T/C,[1],103 % of control
same,T/C,[9],88 % of control
same,T/C,[2],107 % of control
same,T/C,[10],93 % of control
CC(=O)Nc1ccc(S(=O)(=O)Nc2ccccc2F)cc1,T/C,[4],102 % of control
same,T/C,[6],102 % of control
same,T/C,[8],105 % of control
